Results reported in PubChem BioAssay AID2060348 (Molecular Pharmacology Branch, DTP, NCI, 2025).

System: 885724-159-R-J1-PDC spheroids viability
Assay: Anticancer human tumor 885724-159-R-J1-PDC patient-derived pancreatic adenocarcinoma cell line growth inhibition [TAK]
Conditions: spheroids with HUVEC and MSC; for IC50: curve of first compound; for viability, T/C: stronger effect = lower value
Method in brief: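 Spheroids of 60% malignant cells, 25% HUVEC and 15% hMSC were exposed to targeted agents combined with TAK-243 or ipatasertib. Concentrations started at or near clinical Cmax (10 microM if unknown) and descended in half-log steps.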

[1] = second compound 0.3 µM, first compound 0.0316 µM
[2] = second compound 0.3 µM, first compound 0.1 µM
[3] = second compound 0.3 µM, first compound 0.316 µM
[4] = second compound 0.3 µM, first compound 1 µM
[5] = second compound 0.3 µM, first compound 3.16 µM
[6] = second compound 0.3 µM, first compound 10 µM
[7] = second compound 0.949 µM, first compound 0.0316 µM
[8] = second compound 0.949 µM, first compound 0.1 µM
[9] = second compound 0.949 µM, first compound 0.316 µM
[10] = second compound 0.949 µM, first compound 1 µM
[11] = second compound 0.949 µM, first compound 3.16 µM
[12] = second compound 0.949 µM, first compound 10 µM
[13] = second compound 3 µM, first compound 0.0316 µM
[14] = second compound 3 µM, first compound 0.1 µM
[15] = second compound 3 µM, first compound 0.316 µM
[16] = second compound 3 µM, first compound 1 µM
[17] = second compound 3 µM, first compound 3.16 µM
[18] = second compound 3 µM, first compound 10 µM
[19] = second compound 9.49 µM, first compound 0.0316 µM
[20] = second compound 9.49 µM, first compound 0.1 µM
[21] = second compound 9.49 µM, first compound 0.316 µM
[22] = second compound 9.49 µM, first compound 1 µM
[23] = second compound 9.49 µM, first compound 3.16 µM
[24] = second compound 9.49 µM, first compound 10 µM
[25] = second compound 30 µM, first compound 0.0316 µM
[26] = second compound 30 µM, first compound 0.1 µM
[27] = second compound 30 µM, first compound 0.316 µM
[28] = second compound 30 µM, first compound 1 µM
[29] = second compound 30 µM, first compound 3.16 µM
[30] = second compound 30 µM, first compound 10 µM
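Note: spheroids exposed to drugs for seven days.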
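Throughout, for viability, T/C: 100% = DMSO vehicle control viability.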

Q: For CC(C)(C)c1nc(-c2cccc(NS(=O)(=O)c3c(F)cccc3F)c2F)c(-c2ccnc(N)n2)s1 + CC(C)NCC(C(=O)N1CCN(c2ncnc3c2C(C)CC3O)CC1)c1ccc(Cl)cc1, which IC50 (second compound 0.3 µM) is on record?
A: > 10 µM

Q: What about the IC50 (second compound 0.949 µM) of the same compound?
A: > 10 µM

Q: What about the IC50 (second compound 3 µM) of the same compound?
A: > 10 µM

Q: And the IC50 (second compound 9.49 µM)?
A: 8.87 µM

Q: And the IC50 (second compound 30 µM)?
A: < 0.0316 µM

Q: What about the viability, T/C [1] of the same compound?
A: 85.2%

Q: What about the viability, T/C [2] of the same compound?
A: 101%

Q: What about the viability, T/C [3] of the same compound?
A: 112%

Q: What about the viability, T/C [4] of the same compound?
A: 134%

Q: What about the viability, T/C [5] of the same compound?
A: 134%

Q: And the viability, T/C [6]?
A: 121%

Q: And the viability, T/C [7]?
A: 72.3%

Q: And the viability, T/C [8]?
A: 100%

Q: What about the viability, T/C [9] of the same compound?
A: 111%

Q: And the viability, T/C [10]?
A: 117%

Q: And the viability, T/C [11]?
A: 92.2%

Q: What about the viability, T/C [12] of the same compound?
A: 80.5%

Q: What about the viability, T/C [13] of the same compound?
A: 68.2%

Q: What about the viability, T/C [14] of the same compound?
A: 90.7%

Q: And the viability, T/C [15]?
A: 94%

Q: And the viability, T/C [16]?
A: 96%

Q: And the viability, T/C [17]?
A: 73.4%

Q: And the viability, T/C [18]?
A: 57.6%

Q: What about the viability, T/C [19] of the same compound?
A: 57.1%

Q: And the viability, T/C [20]?
A: 71.3%

Q: What about the viability, T/C [21] of the same compound?
A: 77%

Q: And the viability, T/C [22]?
A: 76.1%

Q: What about the viability, T/C [23] of the same compound?
A: 56.1%

Q: What about the viability, T/C [24] of the same compound?
A: 49.3%

Q: And the viability, T/C [25]?
A: 37.7%

Q: And the viability, T/C [26]?
A: 41.3%

Q: And the viability, T/C [27]?
A: 46.9%

Q: And the viability, T/C [28]?
A: 42.7%

Q: What about the viability, T/C [29] of the same compound?
A: 41.6%

Q: And the viability, T/C [30]?
A: 37.7%

Q: For CC(C)n1nc(-c2ccc3oc(N)nc3c2)c2c(N)ncnc21 + CC(C)NCC(C(=O)N1CCN(c2ncnc3c2C(C)CC3O)CC1)c1ccc(Cl)cc1, which IC50 (second compound 0.3 µM) is on record?
A: 0.0185 µM

Q: And the IC50 (second compound 0.949 µM)?
A: 0.00688 µM

Q: And the IC50 (second compound 3 µM)?
A: 0.00315 µM

Q: What about the IC50 (second compound 9.49 µM) of the same compound?
A: < 0.000316 µM

Q: What about the IC50 (second compound 30 µM) of the same compound?
A: < 0.000316 µM

Q: What about the viability, T/C (second compound 0.3 µM, first compound 0.000316 µM) of the same compound?
A: 66.2%

Q: And the viability, T/C (second compound 0.3 µM, first compound 0.001 µM)?
A: 64.1%

Q: And the viability, T/C (second compound 0.3 µM, first compound 0.00316 µM)?
A: 56.8%

Q: What about the viability, T/C (second compound 0.3 µM, first compound 0.01 µM) of the same compound?
A: 53.9%

Q: And the viability, T/C [1]?
A: 48.6%

Q: And the viability, T/C [2]?
A: 37.1%

Q: And the viability, T/C (second compound 0.949 µM, first compound 0.000316 µM)?
A: 57.2%

Q: And the viability, T/C (second compound 0.949 µM, first compound 0.001 µM)?
A: 63.5%

Q: What about the viability, T/C (second compound 0.949 µM, first compound 0.00316 µM) of the same compound?
A: 54%

Q: And the viability, T/C (second compound 0.949 µM, first compound 0.01 µM)?
A: 47.5%

Q: And the viability, T/C [7]?
A: 38.4%

Q: What about the viability, T/C [8] of the same compound?
A: 33.6%

Q: And the viability, T/C (second compound 3 µM, first compound 0.000316 µM)?
A: 58.1%

Q: And the viability, T/C (second compound 3 µM, first compound 0.001 µM)?
A: 61.8%

Q: What about the viability, T/C (second compound 3 µM, first compound 0.00316 µM) of the same compound?
A: 47.7%

Q: And the viability, T/C (second compound 3 µM, first compound 0.01 µM)?
A: 38.8%

Q: What about the viability, T/C [13] of the same compound?
A: 31.5%

Q: And the viability, T/C [14]?
A: 28.6%

Q: And the viability, T/C (second compound 9.49 µM, first compound 0.000316 µM)?
A: 47.4%

Q: And the viability, T/C (second compound 9.49 µM, first compound 0.001 µM)?
A: 45.6%

Q: And the viability, T/C (second compound 9.49 µM, first compound 0.00316 µM)?
A: 38.3%

Q: What about the viability, T/C (second compound 9.49 µM, first compound 0.01 µM) of the same compound?
A: 30.9%

Q: And the viability, T/C [19]?
A: 25.5%

Q: What about the viability, T/C [20] of the same compound?
A: 23%

Q: And the viability, T/C (second compound 30 µM, first compound 0.000316 µM)?
A: 32%

Q: And the viability, T/C (second compound 30 µM, first compound 0.001 µM)?
A: 29.5%

Q: What about the viability, T/C (second compound 30 µM, first compound 0.00316 µM) of the same compound?
A: 30.2%

Q: What about the viability, T/C (second compound 30 µM, first compound 0.01 µM) of the same compound?
A: 20.5%

Q: What about the viability, T/C [25] of the same compound?
A: 19%

Q: And the viability, T/C [26]?
A: 16.4%

Q: Which IC50 (second compound 0.3 µM) does the source give for CCCS(=O)(=O)Nc1ccc(F)c(C(=O)c2c[nH]c3ncc(-c4ccc(Cl)cc4)cc23)c1F + CC(C)NCC(C(=O)N1CCN(c2ncnc3c2C(C)CC3O)CC1)c1ccc(Cl)cc1 here?
A: > 100 µM

Q: And the IC50 (second compound 0.949 µM)?
A: > 100 µM

Q: What about the IC50 (second compound 3 µM) of the same compound?
A: 25.1 µM

Q: And the IC50 (second compound 9.49 µM)?
A: 8.75 µM

Q: And the IC50 (second compound 30 µM)?
A: < 0.316 µM

Q: What about the viability, T/C [3] of the same compound?
A: 79.3%

Q: And the viability, T/C [4]?
A: 93.8%

Q: What about the viability, T/C [5] of the same compound?
A: 104%

Q: And the viability, T/C [6]?
A: 89.7%

Q: What about the viability, T/C (second compound 0.3 µM, first compound 31.6 µM) of the same compound?
A: 99.7%

Q: What about the viability, T/C (second compound 0.3 µM, first compound 100 µM) of the same compound?
A: 105%

Q: And the viability, T/C [9]?
A: 66.1%

Q: What about the viability, T/C [10] of the same compound?
A: 78.4%

Q: And the viability, T/C [11]?
A: 76.2%

Q: And the viability, T/C [12]?
A: 74.2%

Q: What about the viability, T/C (second compound 0.949 µM, first compound 31.6 µM) of the same compound?
A: 34.7%

Q: What about the viability, T/C (second compound 0.949 µM, first compound 100 µM) of the same compound?
A: 76.6%

Q: And the viability, T/C [15]?
A: 66.4%

Q: And the viability, T/C [16]?
A: 71.8%

Q: And the viability, T/C [17]?
A: 67.1%

Q: And the viability, T/C [18]?
A: 63.9%

Q: What about the viability, T/C (second compound 3 µM, first compound 31.6 µM) of the same compound?
A: 34.2%

Q: And the viability, T/C (second compound 3 µM, first compound 100 µM)?
A: 58.8%

Q: And the viability, T/C [21]?
A: 58.5%

Q: And the viability, T/C [22]?
A: 58.4%

Q: And the viability, T/C [23]?
A: 58.6%

Q: And the viability, T/C [24]?
A: 48.9%

Q: What about the viability, T/C (second compound 9.49 µM, first compound 31.6 µM) of the same compound?
A: 13.4%

Q: And the viability, T/C (second compound 9.49 µM, first compound 100 µM)?
A: 47.2%

Q: What about the viability, T/C [27] of the same compound?
A: 37.5%

Q: What about the viability, T/C [28] of the same compound?
A: 40.9%

Q: What about the viability, T/C [29] of the same compound?
A: 36.6%

Q: What about the viability, T/C [30] of the same compound?
A: 12.8%

Q: And the viability, T/C (second compound 30 µM, first compound 31.6 µM)?
A: 3.55%

Q: What about the viability, T/C (second compound 30 µM, first compound 100 µM) of the same compound?
A: 23.1%
